These results are taken from patent US12577231B2, “Androgen receptor PROTACS” (GlaxoSmithKline Intellectual Property Development Limited, priority 2023, dated 2026).

SMILES strings stand for the structures.

The assay addresses T1, Androgen Receptor dual T878A/L702H mutant protein (Homo sapiens, UniProt P10275, L702H/T878A).
T1 construct: host or cells: MDA-PCa-2b
T1 sequence (P10275 1-920 L702H/T878A): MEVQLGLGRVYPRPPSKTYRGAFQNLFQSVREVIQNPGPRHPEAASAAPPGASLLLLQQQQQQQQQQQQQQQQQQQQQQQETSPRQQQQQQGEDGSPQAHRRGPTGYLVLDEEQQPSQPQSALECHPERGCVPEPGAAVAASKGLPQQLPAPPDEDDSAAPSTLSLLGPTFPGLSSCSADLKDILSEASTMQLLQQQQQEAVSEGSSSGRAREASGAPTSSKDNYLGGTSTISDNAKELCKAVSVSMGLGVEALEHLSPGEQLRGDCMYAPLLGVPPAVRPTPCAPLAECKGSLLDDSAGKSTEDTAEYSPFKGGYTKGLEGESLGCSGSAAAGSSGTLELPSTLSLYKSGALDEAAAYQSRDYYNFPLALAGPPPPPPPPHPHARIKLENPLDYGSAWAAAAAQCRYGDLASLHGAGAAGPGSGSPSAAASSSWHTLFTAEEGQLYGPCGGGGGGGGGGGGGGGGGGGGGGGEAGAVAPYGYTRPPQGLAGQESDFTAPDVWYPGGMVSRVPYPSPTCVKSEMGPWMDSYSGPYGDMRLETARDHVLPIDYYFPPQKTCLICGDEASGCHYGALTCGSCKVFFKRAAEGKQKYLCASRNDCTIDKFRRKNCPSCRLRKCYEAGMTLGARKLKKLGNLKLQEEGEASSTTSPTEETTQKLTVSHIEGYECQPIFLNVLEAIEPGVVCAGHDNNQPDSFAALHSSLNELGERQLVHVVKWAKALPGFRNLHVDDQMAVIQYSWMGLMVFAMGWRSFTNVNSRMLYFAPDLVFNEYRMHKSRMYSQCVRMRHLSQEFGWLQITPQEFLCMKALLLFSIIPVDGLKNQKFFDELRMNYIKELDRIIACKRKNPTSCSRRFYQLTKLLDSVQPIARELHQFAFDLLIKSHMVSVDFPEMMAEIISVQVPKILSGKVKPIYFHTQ
The assay can be described thus: Dual Mutant (T878A/L702H) Androgen Receptor Degradation Assay (HTRF, MDA-PCa-2b cells). It counts as cell-based. Particulars: 18 h, 18 h incubation, read-out: mean asymptote max. The method in brief:
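PROTACs tested as 11-point, 3-fold dilutions on 10,000 cells for 18 h at 37 °C. Remaining AR read by HTRF (665/620 nm ratio) after lysis, normalised to DMSO-treated cells (0%) and cell-free medium (100%). Relative DC50 from 4-parameter fit inflection, absolute DC50 interpolated at 50% degradation; Dmax is maximum observed degradation.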
(In TR-FRET formats the signal depends on donor and acceptor labels being close together.)
Consider `CC1(C)[C@H](NC(=O)c2ccc(N3CCC(CN4CC[C@@H](n5ncc6c(N7CCC(=O)NC7=O)cccc65)[C@@H](F)C4)CC3)c(F)c2)C(C)(C)[C@H]1Oc1ccc(C#N)c2ncccc12` [Example 45, N-((1r,3r)-3-((8-Cyanoquinolin-5-yl)oxy)-2,2,4,4-tetramethylcyclobutyl)-4-(4-(((35,4R)-4-(4-(2,4-dioxotetrahydropyrimidin-1(2H)-yl)-1H-indazol-1-yl)-3-fluoropiperidin-1-yl)methyl)piperidin-1-yl)-3-fluorobenzamide], for which the Dmax was 49%.
Regarding `CC1(C)[C@H](NC(=O)c2ccc(N3CCC(CN4CC[C@H](n5ncc6c(N7CCC(=O)NC7=O)cccc65)[C@H](F)C4)CC3)c(F)c2)C(C)(C)[C@H]1Oc1ccc(C#N)c2ncccc12` [Example 46, N-((1r,3r)-3-((8-Cyanoquinolin-5-yl)oxy)-2,2,4,4-tetramethylcyclobutyl)-4-(4-(((3R,4S)-4-(4-(2,4-dioxotetrahydropyrimidin-1(2H)-yl)-1H-indazol-1-yl)-3-fluoropiperidin-1-yl)methyl)piperidin-1-yl)-3-fluorobenzamide], the Dmax was no less than 50%.
Regarding `CC1(C)[C@H](NC(=O)c2ccc(N3CCC(CN4CCC(n5ccc6c(N7CCC(=O)NC7=O)ncnc65)CC4)CC3)c(F)c2)C(C)(C)[C@H]1Oc1ccc(C#N)c2ncccc12` [Example 47, N-((1r,3r)-3-((8-Cyanoquinolin-5-yl)oxy)-2,2,4,4-tetramethylcyclobutyl)-4-(4-((4-(4-(2,4-dioxotetrahydropyrimidin-1(2H)-yl)-7H-pyrrolo[2,3-d]pyrimidin-7-yl)piperidin-1-yl)methyl)piperidin-1-yl)-3-fluorobenzamide], the Dmax is no less than 50%.
In the case of `CC1(C)[C@H](NC(=O)c2ccc(N3CCC(O)(CN4CCC(n5ncc6c(N7CCC(=O)NC7=O)cccc65)CC4)CC3)c(F)c2)C(C)(C)[C@H]1Oc1ccc(C#N)c2ncccc12` [Example 48, N-((1r,3r)-3-((8-Cyanoquinolin-5-yl)oxy)-2,2,4,4-tetramethylcyclobutyl)-4-(4-((4-(4-(2,4-dioxotetrahydropyrimidin-1(2H)-yl)-1H-indazol-1-yl)piperidin-1-yl)methyl)-4-hydroxypiperidin-1-yl)-3-fluorobenzamide] it was no less than 50%; in that of `CC1(C)[C@H](NC(=O)c2ccc(N3CCC4(CC3)CC(N3CCC(n5ncc6c(N7CCC(=O)NC7=O)cccc65)CC3)C4)c(F)c2)C(C)(C)[C@H]1Oc1ccc(C#N)c2ncccc12` [Example 49, N-((1r,3r)-3-((8-Cyanoquinolin-5-yl)oxy)-2,2,4,4-tetramethylcyclobutyl)-4-(2-(4-(4-(2,4-dioxotetrahydropyrimidin-1(2H)-yl)-1H-indazol-1-yl)piperidin-1-yl)-7-azaspiro[3.5]nonan-7-yl)-3-fluorobenzamide], no less than 50%.
The value for `CC1(C)[C@H](NC(=O)c2ccc(N3CCC(CN4CCC(n5ncc6c(N7CCC(=O)NC7=O)c(F)ccc65)CC4)CC3)c(F)c2)C(C)(C)[C@H]1Oc1ccc(C#N)c2ncccc12` [Example 50, N-((1r,3r)-3-((8-Cyanoquinolin-5-yl)oxy)-2,2,4,4-tetramethylcyclobutyl)-4-(4-((4-(4-(2,4-dioxotetrahydropyrimidin-1(2H)-yl)-5-fluoro-1H-indazol-1-yl)piperidin-1-yl)methyl)piperidin-1-yl)-3-fluorobenzamide] was no less than 50%; that for `CC1(C)[C@H](NC(=O)c2ccc(N3CCC(CN4CCC(n5ccc6c(N7CCC(=O)NC7=O)c(F)ccc65)CC4)CC3)c(F)c2)C(C)(C)[C@H]1Oc1ccc(C#N)c2ncccc12` [Example 51, N-((1r,3r)-3-((8-Cyanoquinolin-5-yl)oxy)-2,2,4,4-tetramethylcyclobutyl)-4-(4-((4-(4-(2,4-dioxotetrahydropyrimidin-1(2H)-yl)-5-fluoro-1H-indol-1-yl)piperidin-1-yl)methyl)piperidin-1-yl)-3-fluorobenzamide] was no less than 50%.
